Four molecules from paper PMC9404985, “Development of Dicationic Bisguanidine-Arylfuran Derivatives as Potent Agents against Gram-Negative Bacteria” (Antibiotics, 2022) can be followed below.

Data set [1] relates to Escherichia coli CCUG # 17620. The experiment in a line: MIC of established antibiotics, micro-broth dilution. To be noted: CCUG17620, read-out: MIC Escherichia coli CCUG 17620.
Data set [2] has as its system Pseudomonas aeruginosa CCUG # 17619. Described as above. The settings on record: CCUG17619, read-out: MIC Pseudomonas aeruginosa CCUG 17619.
The test system of data set [3] is Acinetobacter baumannii CCUG # 57250. The description is as above. The settings on record: CCUG57250, read-out: MIC Acinetobacter baumannii CCUG 57250.
For data set [4], the system named is Enterobacter hormaechei CCUG # 58962. The data set is described as above. To be noted: CCUG58962, read-out: MIC Enterobacter hormaechei CCUG 58962.
The subject of data set [5] is Klebsiella pneumoniae CCUG # 58547. The data set is described as above. The settings on record: CCUG58547, read-out: MIC Klebsiella pneumoniae CCUG 58547.
Data set [6] relates to Acinetobacter baumannii CCUG # 57035. Described as above. To be noted: CCUG57035, read-out: MIC Acinetobacter baumannii CCUG 57035.
Data set [7] concerns Pseudomonas aeruginosa CCUG # 59347. The data set is described as above. To be noted: CCUG59347, read-out: MIC Pseudomonas aeruginosa CCUG 59347.
Data set [8] relates to Escherichia coli CCUG # 67180. The description is as above. The settings on record: CCUG67180, read-out: MIC Escherichia coli CCUG 67180.
Data set [9] deals with Klebsiella pneumoniae CCUG # 225T. Described as above. The settings on record: read-out: MIC Klebsiella pneumoniae CCUG 225T.
In data set [10] the test system is Enterobacter cloacae CCUG # 6323T. The data set is described as above. To be noted: read-out: MIC Enterobacter cloacae CCUG 6323T.
Data set [11] deals with P. carotovorum (NBRC/ATCC #3380). Description: Antibacterial resazurin assay, laboratory strain.
Data set [12] is described as follows: Cytotoxicity assay (PrestoBlue) MCF-7. The format is cell-based. To be noted: human, MCF-7 cells (breast cancer cell line), 24 h incubation. The protocol:
(§1) The cytotoxicity levels of all compounds were evaluated against human Michigan Cancer Foundation-7 (MCF-7) and Hepatoma G2 cell line (HepG2) cell lines. MCF-7 is an extensively characterized breast cancer cell line isolated in 1970 [41], while HepG2 cells were derived from a hepatoma in 1975 [42]. Both cell lines grow robustly during in vitro culture and have been widely used for cytotoxicity testing. Cells of hepatic origin, such as HepG2, are of particular relevance for toxicity studies as many drugs accumulate in the liver during metabolic conversion. Cells were grown in Dulbecco’s Modified Eagle Medium supplemented with 10% fetal calf serum and kept in exponential growth, as previously reported. Before the assay, cells were reseeded into 96-well microtiter plates at a density allowing continued exponential growth and let to settle for 24 h. The compounds were added from a stock solution in DMSO, for a final concentration of 0.3% v/v of the solvent in the culture medium. After 24 h of incubation in presence of the compound, cell viability was assayed using PrestoBlue Cell Viability Reagent (resazurin-based solution, ThermoFisher, Waltham, MA, USA) according to the manufacturer’s instructions. […] Each assay contained a DMSO control at the equivalent starting concentration, positive control (uninhibited cell growth) and negative control (cell medium only). Survival was expressed as percentage of the solvent-only control. […] The Selectivity Index (SI) for each compound and bacterial strain was calculated as the ratio between the mean of the EC50 values for the two human cell lines and the EC50 for the bacterial strain in question ((EC50 MCF-7 + EC50 HepG2)/2)/EC50 bacterial strain).

The subject of data set [13] is E. coli MG1655 (CGSC #6300). The experiment in a line: Antibacterial resazurin assay, laboratory strain.
Data set [14] concerns P. putida (NBRC/ATCC #100650). The experiment in a line: Antibacterial resazurin assay, laboratory strain.
Data set [15] concerns P. caledonica (NBRC/ATCC #102488). Description: Antibacterial resazurin assay, laboratory strain.
Data set [16] can be described thus: Cytotoxicity assay (PrestoBlue) HepG2. To be noted: human, HepG2 cells (hepatoma cell line), 24 h incubation. The format is cell-based. The procedure:
as §1

In data set [17] the test system is B. subtilis (NBRC/ATCC #111470). The experiment in a line: Antibacterial resazurin assay, laboratory strain.
Where [18] appears, read: mean of MCF-7 and HepG2 EC50 over bacterial EC50, laboratory strain.

With `O=C(O)c1cn(C2CC2)c2cc(N3CCNCC3)c(F)cc2c1=O` [Ciprofloxacin], the MIC in data set [1] is 0.025 µM; in data set [2] it was 1.5 to 3 µM; in data set [3], 200 µM; in data set [4], 0.1 µM; in data set [5] it was 190 µM; in [6], 200 µM. Besides, the results for the MIC in data set [7], in data set [8] and in [9] were 100 µM, 190 µM and 0.18 µM, respectively.

In the case of `C[C@@H](O)[C@H]1C(=O)N2C(C(=O)O)=C(S[C@@H]3CN[C@H](C(=O)N(C)C)C3)[C@H](C)[C@H]12` [Meropenem], the minimal inhibitory concentration (MIC) is 0.16 µM in [1]; 2.6 to 5.2 µM in data set [2]; 40 µM in data set [3]; 0.3 µM in data set [4]; more than 80 µM in data set [5]; 335 µM in data set [6]. In addition, the MIC is 335 µM in data set [7], 0.6 to 1.2 µM in [10], 10 to 20 µM in [8] and 0.16 to 0.32 µM in data set [9].

Consider `N=C(N)Nc1ccc2c(c1)CCN2C(=O)c1ccc(-c2ccccc2Cl)o1` [Compound 19, (5-(2-chlorophenyl)furan-2-yl)(5-guanidinoindolin-1-yl)methanone], for which the concentration for a half-maximal effect (EC50) in data set [11] (Pectobacterium carotovorum, ATCC3380, 18 h, read-out: Pcar EC50, laboratory strain, 18 h, 37 °C, AlamarBlue) stood at 87.1 µM; in [13] (Escherichia coli, MG1655, 18 h, read-out: Eco EC50), 0.5 µM; in [14] (Pseudomonas putida, ATCC100650, 18 h, read-out: Ppu EC50, laboratory strain, 18 h, 37 °C, AlamarBlue), 75 µM; in [15] (Paraburkholderia caledonica, ATCC102488, 18 h, read-out: Pcal EC50), 96.3 µM; in [17] (Bacillus subtilis, ATCC111470, 18 h, read-out: Bsu EC50) it was 14.5 µM. In addition, the 90% effect concentration (EC90) in [11] (Pectobacterium carotovorum, ATCC3380, 18 h, read-out: Pcar EC90) was determined as 130 µM; in [13] (Escherichia coli, MG1655, 18 h, read-out: Eco EC90), 2.5 µM; in data set [14] (Pseudomonas putida, ATCC100650, 18 h, read-out: Ppu EC90) it was 84.9 µM; in [15] (Paraburkholderia caledonica, ATCC102488, 18 h, read-out: Pcal EC90), 287 µM; in [17] (Bacillus subtilis, ATCC111470, 18 h, read-out: Bsu EC90), 25.9 µM. Besides, the “Selectivity index P. carotovorum” value in [11] (setting [18]) stood at 0.3. Moreover, the EC50 at 24 h in data set [12] turned out to be 26.4 µM; in data set [16], 24.8 µM. Moreover, in data set [13] (setting [18]), the “Selectivity index E. coli” value turned out to be 51.2. Also, the “Selectivity index P. putida” value in data set [14] (setting [18]) stood at 0.3. For the same molecule, the “Selectivity index P. caledonica” value in data set [15] (setting [18]) worked out at 0.3. Moreover, the “Selectivity index B. subtilis” value in data set [17] (setting [18]) is 1.8.

As to `CC1(C)S[C@@H]2[C@H](NC(=O)[C@H](N)c3ccc(O)cc3)C(=O)N2[C@H]1C(=O)O` [Amoxicillin], the MIC is 11 to 44 µM in data set [1]; 350 µM in data set [2]; 175 µM in [3]; 350 µM in data set [4]; 350 µM in [5]; 175 µM in data set [6]. The MIC in data set [7], in data set [10], in [8] and in data set [9] was 350 µM throughout.
